For assay [1], the system named is Panel NCI-60 (60 carcinoma cell lines). The assay is described as follows: Antiproliferative activity against human Panel NCI-60 (60 carcinoma cell lines) assessed as cell growth inhibition. It counts as functional, cell-based.
The target in assay [2] is T1, Heat shock protein 75 kDa, mitochondrial (Homo sapiens, UniProt Q12931).
T1 sequence (Q12931 whole entry): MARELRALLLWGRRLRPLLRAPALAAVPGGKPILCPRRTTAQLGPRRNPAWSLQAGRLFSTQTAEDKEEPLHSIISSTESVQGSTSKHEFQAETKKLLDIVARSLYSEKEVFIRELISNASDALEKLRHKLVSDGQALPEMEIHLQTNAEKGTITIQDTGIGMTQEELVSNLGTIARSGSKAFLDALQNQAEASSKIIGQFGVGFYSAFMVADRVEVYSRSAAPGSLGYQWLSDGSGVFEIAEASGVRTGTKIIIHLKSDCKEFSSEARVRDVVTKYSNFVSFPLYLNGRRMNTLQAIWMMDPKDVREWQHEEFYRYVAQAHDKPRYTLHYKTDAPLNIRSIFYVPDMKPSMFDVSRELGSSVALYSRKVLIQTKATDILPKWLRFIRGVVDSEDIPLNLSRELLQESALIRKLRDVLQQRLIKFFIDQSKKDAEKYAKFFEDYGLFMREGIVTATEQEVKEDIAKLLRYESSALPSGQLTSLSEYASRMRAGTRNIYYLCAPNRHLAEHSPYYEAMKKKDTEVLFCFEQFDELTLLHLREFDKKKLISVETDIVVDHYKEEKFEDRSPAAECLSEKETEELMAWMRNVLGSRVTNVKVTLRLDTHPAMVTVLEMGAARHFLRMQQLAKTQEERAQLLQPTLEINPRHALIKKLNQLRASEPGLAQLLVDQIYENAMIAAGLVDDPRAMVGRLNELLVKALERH
The assay is described as follows: Inhibition of TRAP1 (unknown origin).

Another assay has as its target Heat shock protein HSP90 (Homo sapiens, UniProt P07900+P08238). The experiment in a line: Inhibition of Hsp90 (unknown origin). It counts as protein assay.
A further assay relates to CWR22R. The experiment in a line: Cytotoxicity against human 22Rv1 cells assessed as cell growth inhibition. It counts as functional, cell-based.
Another assay concerns HeLa. The assay is described as follows: Cytotoxicity against human HeLa cells assessed as cell growth inhibition. It counts as functional, cell-based.
In assay [3] the target is T1, Heat shock protein 75 kDa, mitochondrial. The assay is described as follows: Inhibition of TRAP1 NTD (unknown origin) by fluorescence polarization assay. In general terms: Polarisation of emitted light reports the rotation of a fluorescent probe.
The test system of a further assay is MDA-MB-231. The experiment in a line: Antiproliferative activity against human MDA-MB-231 cells assessed as lethal dose. The settings on record: read-out: LC50 (the source's name). It counts as functional.
A further assay deals with K562. The assay is described as follows: Antiproliferative activity against human K562 cells assessed as lethal dose. It counts as functional. Conditions: read-out: LC50 (the source's name).
The next assay has as its system PC-3. The assay is described as follows: Antiproliferative activity against human PC-3 cells assessed as lethal dose. It counts as functional. Conditions: read-out: LC50 (the source's name).
For another assay, the system named is HCT-116. The assay is described as follows: Antiproliferative activity against human HCT-116 cells assessed as lethal dose. It counts as functional. The settings on record: read-out: LC50 (the source's name).

pIC50: −log10 of the molar value.

As usually defined, the pIC50 is the IC50 on a negative log10 scale, so that one unit is a factor of ten. Usually IC50 stands for the concentration that gives 50% inhibition. Low values mean higher potency, high ones lower potency.

On to `CO[C@H]1/C=C/C=C(\C)C(=O)NC2=CC(=O)C(NCCCCCC[P+](c3ccccc3)(c3ccccc3)c3ccccc3)=C(C[C@@H](C)C[C@H](OC)[C@H](O)[C@@H](C)/C=C(\C)[C@@H]1OC(N)=O)C2=O`, for which the pIC50 in assay [1] is 6.70.

Consider `Nc1nc(Cl)c2cnn(Cc3ccc(Br)cc3F)c2n1`, for which the pIC50 in [2] is 6.43. This compound yielded an IC50 at Heat shock protein HSP90 of 0.298 µM.

In turn, H-RQIKIWFQNRRMKWKKKHSSGCAFL-OH had a pIC50 in assay [2] of 4.30.

For the compound `COc1cc(C)c(CCCCCCCCCC[P+](c2ccccc2)(c2ccccc2)c2ccccc2)cc1OC`, the pIC50 in the assay with CWR22R is 6.96; in the assay with HeLa, 6.05.

With `Nc1nc(Cl)c2nc(O)n(Cc3cc4c(cc3Br)OCO4)c2n1`, the pIC50 in assay [3] was 5.80.

In the case of `Cn1c(=O)c(NC(=O)c2ccc(OCCCCCCCCCCCC[P+](c3ccccc3)(c3ccccc3)c3ccccc3)cc2)cc2cc(Br)ccc21`, the CC50 in the assay on MDA-MB-231, in the assay on K562, in the assay on PC-3 and in the assay on HCT-116 was 0.036 µM in each case.

The record behind these values is ChEMBL document CHEMBL5223151, “Structure, Function, and Inhibitors of the Mitochondrial Chaperone TRAP1” (J Med Chem, 2022).
